# In EP3070175A1, “TEST FOR DETERMINING SUSCEPTIBILITY OR RESISTANCE TO POLYMYXINS IN ENTEROBACTERIACEAE” (Université de Fribourg, priority 2015, dated 2016):
# Tested on: enterobacterial strains
# Assay: Polymyxin test: colorimetric detection of growth with polymyxin B as selective antibiotic
# Type: cell-based, Enterobacteriaceae
# Settings: polymyxin B instead of colistin as selective antibiotic; all tested strains
# Procedure: Each inoculum was prepared by mixing 1 öse (10 µl) of a fresh culture of the tested bacteria in 5 ml of sterile NaCl 0.85% (at a density of 3 Mac Farland, i.e. about 10^9 CFU/ml).
# 250 ml of reactive medium was prepared by mixing the compounds hereafter: • a broth powder of a non selective growth medium for bacteria, the Cation-Adjusted Mueller-Hinton broth (MHB-CA) : 6.25 g • a colour indicator, the phenol red : 0.0125 g • sterile distilled water 225 ml • sterile D (+)-glucose (10 %) anhydrous (sterilization by filtration) : 25 ml
# The pH of the final reactive medium was adjusted to 6.6 and 6.7 with HCl 1M.
# Colistin or polymyxin B was added or not at the concentration of 5 mg/L in the reactive medium. Standard colistin sulphate and polymyxin B were from Sigma Aldrich (Saint-Louis, France). Those antibiotic molecule powders were kept at 4°C before their use, whereas polymyxin dilutions were kept at -20°C.
# For each strain, two wells of a plastic sterile plate with 96 shaped wells were inoculated in parallel with and without polymyxin (colistin sulphate or polymyxin B) in order to compare their colour change.
# Plastic sterile plates were from Sarstedt (Nümbrecht, Germany). The tray may be prepared as follows : • 1. […]
# The results of the tests were recorded at 10 min (checking for no spontaneous colour change in the well) and then every hour for a maximum of 4 hours by visual inspection. […]
substance,measurement,value
polymyxin B,Results of the method of the invention compared with colistin,Identical results
